{"source": "patent US10850135B2", "about": "“Antiseptic-tolerant lactic acid bacteria” (AB-BIOTICS, S.A., priority 2016, dated 2020)", "experiment_in_all_cases": "Tolerance to antiseptics, disc diffusion assay", "key": {"[1]": {"tested_on": "Porphyromonas gingivalis DSM20709", "format": "cell-based", "experimental": "(§1) LAB strains with presumed probiotic properties namely L. brevis, P. acidilactici, P. pentosaceus, S. oralis and S. salivarius were seeded in agar plates with the appropriate nutrient media and incubated in order to obtain isolated colonies. Porphyromonas gingivalis DSM20709 was used as an example of pathogens associated with periodontal pathologies. For each strain the nutritive media and atmospheric conditions used were the most suitable for their proper growth as summarized in TABLE 1.\n(§2) For each microorganism, isolated colonies were used for preparing a suspension in Phosphate Buffered Saline 0.1M (PBS) with an optical density equivalent to a Mc Farland standard No. 3. The suspension was used for obtaining a confluent layer of microorganism over the corresponding nutrient medium (TABLE 1) by uniformly seeding the microorganism using a sterile swab.\n(§3) Immediately after the inoculation of the strains in the plates, 6 mm of cellulose discs were placed. The discs were impregnated with different conventional antiseptics according to TABLE 2:\n(§4) The volume used was the maximum allowed by the disc without spreading on the medium. The solvent was confirmed to not be inhibitory against the bacteria at the amount used. Microorganism were allowed to grow according to the conditions of TABLE 1, and halos of inhibition (in millimeters) measured after 24 h or 48 h according to the corresponding optimal growth conditions for the microorganisms. Results were obtained in triplicate."}, "[2]": {"tested_on": "Streptococcus sp. strains (S. oralis, S. salivarius K12)", "format": "cell-based", "experimental": "as §1, §2, §3, §4"}, "P. acidilactici CECT8633": {"tested_on": "P. acidilactici CECT8633", "format": "cell-based, Pediococcus acidilactici", "experimental": "as §1, §2, §3, §4"}, "L. brevis CD2": {"tested_on": "L. brevis CD2", "format": "cell-based, Lactobacillus brevis", "experimental": "as §1, §2, §3, §4"}, "[3]": {"tested_on": "Pediococcus strains (P. acidilactici CECT8633, P. acidilactici AB134, P. pentosaceus CECT8330)", "format": "cell-based, Pediococcus sp.", "conditions": "for resistance compared with the other strains tested (disc diffusion): vs L. brevis, Streptococcus sp. and P. gingivalis", "experimental": "as §1, §2, §3, §4"}, "P. acidilactici AB134": {"tested_on": "P. acidilactici AB134", "format": "cell-based, Pediococcus acidilactici", "conditions": "6 mm discs impregnated with chlorhexidine; concentration not given", "experimental": "as §1, §2, §3, §4"}, "[4]": {"tested_on": "Pediococcus pentosaceous CECT8330", "format": "cell-based, Pediococcus pentosaceus", "conditions": "6 mm discs impregnated with chlorhexidine; concentration not given", "experimental": "as §1, §2, §3\nas §4, with “The solvent was confirmed to not be inhibitory against the bacteria at the amount used.” left out, “Results were obtained in triplicate.” left out"}, "[5]": {"conditions": "highest concentration tested 0.12%, v/v"}, "[6]": {"conditions": "highest concentration tested 1.2 mg/mL, 5 uL per disc"}, "[7]": {"conditions": "6 mm discs impregnated with chlorhexidine, concentration not given"}, "[8]": {"conditions": "any of the concentration tested (0.12%, 0.06%, 0.03%)"}, "[9]": {"conditions": "triclosan at different concentrations (0.2%, 0.1%, 0.05%), 5 uL per disc"}}, "data": [{"smiles": "N=C(NCCCCCCNC(=N)NC(=N)Nc1ccc(Cl)cc1)NC(=N)Nc1ccc(Cl)cc1.O=C(O)[C@H](O)[C@@H](O)[C@H](O)[C@H](O)CO.O=C(O)[C@H](O)[C@@H](O)[C@H](O)[C@H](O)CO", "note": "[chlorhexidine gluconate]", "values": [{"measurement": "inhibition (halo, disc diffusion)", "setting": "[1]; [5]", "result": "all the strains were inhibited"}, {"measurement": "inhibition (halo, disc diffusion)", "setting": "[2]; [5]", "result": "all the strains were inhibited"}, {"measurement": "inhibition halo compared with S. salivarius K12 and P. gingivalis", "setting": "P. acidilactici CECT8633; chlorhexidine gluconate 0.12%, 20 μl per 6-mm disc (FIG. 7)", "result": "lower inhibition halo"}, {"measurement": "inhibition (halo, disc diffusion)", "setting": "L. brevis CD2; [5]", "result": "all the strains were inhibited"}, {"measurement": "inhibition (halo, disc diffusion)", "setting": "[3]; [5]", "result": "all the strains were inhibited"}, {"measurement": "resistance compared with the other strains tested (disc diffusion)", "setting": "[3]", "result": "highest resistance"}]}, {"smiles": "Cc1ccc(C(C)C)c(O)c1", "note": "[thymol, 2-isopropyl-5-methylphenol]", "values": [{"measurement": "growth inhibition (halo, disc diffusion)", "setting": "[1]; [6]", "result": "inhibited the growth"}, {"measurement": "growth inhibition (halo, disc diffusion)", "setting": "[2]; [6]", "result": "inhibited the growth"}]}, {"smiles": "NC(=NCCCCCCN=C(N)/N=C(\\N)Nc1ccc(Cl)cc1)/N=C(\\N)Nc1ccc(Cl)cc1", "note": "[chlorhexidine, (1E)-2-[6-[[amino-[(E)-[amino-(4-chloroanilino)methylidene]-amino]methylidene]amino]hexyl]-1-[amino-(4-chloroanilino)methylidene]guanidine]", "values": [{"measurement": "inhibition halo", "setting": "[1]; [7]", "result": 9, "unit": "mm"}, {"measurement": "inhibition (halo, disc diffusion)", "setting": "[1]; [8]", "result": "inhibited at any of the concentration tested"}, {"measurement": "inhibition (halo, disc diffusion)", "setting": "[1]; [5]", "result": "all the strains were inhibited"}, {"measurement": "inhibition (halo, disc diffusion)", "setting": "[2]; [8]", "result": "inhibited at any of the concentration tested"}, {"measurement": "inhibition (halo, disc diffusion)", "setting": "[2]; [5]", "result": "all the strains were inhibited"}, {"measurement": "inhibition halo", "setting": "P. acidilactici AB134", "result": 2, "unit": "mm"}, {"measurement": "inhibition halo", "setting": "P. acidilactici CECT8633; [7]", "result": 3, "unit": "mm"}, {"measurement": "inhibition (halo, disc diffusion)", "setting": "L. brevis CD2; concentrations of 0.12% and 0.06%", "result": "inhibited"}, {"measurement": "inhibition (halo, disc diffusion)", "setting": "L. brevis CD2; [5]", "result": "all the strains were inhibited"}, {"measurement": "inhibition (halo, disc diffusion)", "setting": "[3]; [5]", "result": "all the strains were inhibited"}, {"measurement": "resistance compared with the other strains tested (disc diffusion)", "setting": "[3]", "result": "greatest resistance"}, {"measurement": "inhibition halo", "setting": "[4]", "result": 4, "unit": "mm"}]}, {"smiles": "Oc1cc(Cl)ccc1Oc1ccc(Cl)cc1Cl", "note": "[triclosan, 5-Chloro-2-(2,4-dichlorophenoxy)phenol]", "values": [{"measurement": "inhibition (halo, disc diffusion)", "setting": "[1]; [9]", "result": "inhibited"}, {"measurement": "inhibition (halo, disc diffusion)", "setting": "[2]; [9]", "result": "inhibited"}, {"measurement": "inhibition (halo, disc diffusion)", "setting": "L. brevis CD2; [9]", "result": "neither Lactobacillus brevis nor the strains belonging to Pediococcus genus were inhibited"}, {"measurement": "inhibition (halo, disc diffusion)", "setting": "[3]; [9]", "result": "neither Lactobacillus brevis nor the strains belonging to Pediococcus genus were inhibited"}]}]}
